Data on 7 molecules can be found in patent publication US20070197509A1, “Compositions and methods for modulating gated ion channels” (PainCeptor Pharma Corporation, priority 2005, published 2007).

Structures are written as SMILES.

For assay [1], the target named is T1, hASIC1a (Homo sapiens, UniProt P78348).
T1 sequence (P78348 1-528): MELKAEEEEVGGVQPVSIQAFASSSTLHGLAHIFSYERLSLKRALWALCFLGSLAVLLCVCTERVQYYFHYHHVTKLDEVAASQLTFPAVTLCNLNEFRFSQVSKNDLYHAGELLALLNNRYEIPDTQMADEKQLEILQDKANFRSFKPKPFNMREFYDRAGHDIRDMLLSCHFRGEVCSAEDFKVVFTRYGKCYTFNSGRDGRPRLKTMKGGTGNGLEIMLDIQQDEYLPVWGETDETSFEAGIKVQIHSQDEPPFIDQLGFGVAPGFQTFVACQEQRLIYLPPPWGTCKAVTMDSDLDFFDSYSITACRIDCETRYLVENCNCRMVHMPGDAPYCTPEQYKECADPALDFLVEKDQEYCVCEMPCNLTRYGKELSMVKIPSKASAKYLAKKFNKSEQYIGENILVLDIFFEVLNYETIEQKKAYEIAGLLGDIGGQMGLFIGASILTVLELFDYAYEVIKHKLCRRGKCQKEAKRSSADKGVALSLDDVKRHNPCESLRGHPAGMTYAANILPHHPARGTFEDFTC
Nature of the assay: FlexStation/FLIPR calcium-imaging assay, acid (MES)-induced response in ASIC1a expressing cells. The assay is classed as cell-based. More on the design: expressed in transfected cells. To be noted: calcium mobilization assay, HEK293, n=3-7; read-out: FPAT-ASIC1a human/HEK293/k21 IC50. The method, then: Identification of ASIC Antagonists Using Calcium-Imaging
ASIC1a expressing HEK293 or CHO cells are grown in culture medium (DMEM with 10% FBS), in polystyrene culture flasks ([…]) at 37° C. in a humidified atmosphere of 5% CO2. Confluency of cells should be 80-90% on day of plating. Cells are rinsed with 10 ml of PBS and re-suspended by addition of culture medium and trituration with a 25 ml pipette.
The cells are seeded at a density of approximately 1×10^5 cells/ml for HEK293 and 8×10^4 for CHO cells (100 μl/well) in black-walled, clear bottom, poly-D-lysin pre-treated 96-well plates. Plated cells were allowed to proliferate for 48 h before loading with dye.
Fluo-4/AM (1 mg, Molecular Probes) is dissolved in 912 μl DMSO. The Fluo-4/AM stock solution (1 mM) is diluted with culture medium to a final concentration of 2 μM (loading solution).
The culture medium is aspirated from the wells, and 80 μl of the Fluo-4/AM loading solution is added to each well. The cells are incubated at 37° C. for 30 min. When CHO cells are used, probenicid at 2.5 mM (final concentration) is added in the loading solution.
After the loading period (15-20 min., the loading solution is aspirated and the cells are washed twice with 100 μl modified Assay Buffer (145 mM NaCl, 5 mM KCl, 5 mM CaCl2, 1 mM MgCl2, 10 mM HEPES, pH 7.4) to remove extracellular dye. Following the second wash, 100 μl modified Assay Buffer is added to each well and the fluorescence is measured in FLIPR™ or FlexStation™ (Molecular Devices, USA), or any other suitable equipment known to the skilled in the art. When CHO cells are used, probenicid at 2.5 mM (final concentration) is added in the wash buffer.
First addition: 50 μl test solution at a rate of 26 μl/sec and a starting height of 125 μl
Second addition: 50 μl MES solution (20 mM, 5 mM final concentration) at a rate of 26 μl/sec and a starting height of 115 μl.
Reading intervals: pre-incubation—120 sec. antagonist phase, addition of MES at 145 sec. and reading time with agonist 100 sec (total run time of 240 sec).
Fluorescence obtained after stimulation is corrected for the mean basal fluorescence (in modified Assay Buffer).
(§1) The MES-induced peak calcium response (or change in membrane potential), in the presence of test substance, is expressed relative to the MES response alone. Test substances that block the MES-induced calcium response (or change in membrane potential) are re-tested in triplicates. Confirmed hits are picked for further characterization by performing full dose-response curves to determine potency of each hit compound as represented by the IC50 values (i.e., the concentration of the test substance which inhibits 50% of the MES-induced calcium and/or membrane potentiation response; see, for example, FIG. 1).

Assay [2] addresses T1, hASIC1a. Briefly: Two-electrode voltage clamp in Xenopus laevis oocytes expressing hASIC1a (OpusExpress). The assay is classed as cell-based. More on the design: expressed in transfected cells; host or cells: Xenopus laevis oocytes, nuclear microinjection of cDNA (e.g. in pCDNA3). Here is the method:
Two-electrode voltage clamp electrophysiological assays in Xenopus laevis oocytes expressing gated ion channels are performed as follows:
Oocytes are surgically removed from adult Xenopus laevis and treated for 2 h at room temperature with 1 mg/ml type I collagenase (Sigma) in Barth's solution under mild agitation. Selected oocytes at stage IV-V are defolliculated manually before nuclear microinjection of 2.5-5 ng of a suitable expression vector, such as pCDNA3, comprising the nucleotide sequence encoding a gated ion channel subunit protein. In such an experiment, the oocytes express homomultimeric proton-gated ion channels on their surface. In an alternate experiment, one, two, three or more vectors comprising the coding sequences for distinct gated ion channel subunits are co-injected in the oocyte nuclei. In the latter case, oocytes express heteromultimeric proton-gated ion channels. […] Once impaled with the microelectrodes, oocytes are continuously superfused at 10-12 ml/min with a modified Ringer's solution containing 97 mM NaCl, 2 mM KCl, 1.8 mM CaCl2, and 10 mM HEPES brought to pH 7.4 with NaOH (Control Ringer). Test Ringer solution is prepared by replacing HEPES with MES and adjusting the pH to the desired acidic value. Compounds of the present invention are prepared in both the Control and Test Ringer solutions and applied to oocytes at room temperature through a computer-controlled switching valve system. […] Similarly, recordings can also be acquired in an automated multichannel oocytes system as the OpusExpress™ (Molecular Devices, Sunnyvale, Calif., USA).
Recordings were acquired from oocytes expressing homomeric hASIC1a using a two-electrode voltage-clamp configuration procedure as described herein.

Assay [3] deals with T2, hASIC3 (h3) and/or hASIC1a (h1a).
T2 construct: EC50 (μM) in one experiment; HEK293
Nature of the assay: FlexStation/FLIPR assay, channel not marked in the cell. It is filed as cell-based, human. To be noted: Table H, cells without channel mark; HEK293; read-out: EC50 (μM) Flex/FLIPR.
Description: as §1
(§2) The data shown in Table H was acquired using the FlexStation assay described in Example 1 on HEK293 cells expressing hASIC3 (h3) and/or hASIC1a (h1a).

In assay [4] the target is T1, hASIC1a. Briefly: Whole-cell patch clamp of acid-induced currents in cells transfected with hASIC1a. The assay is classed as cell-based. The settings on record: Table H. Also on record: expressed in transfected cells. Here is the method: Another example of an in vitro assessment method consists of using mammalian heterologous expression systems, which are known to those skilled in the art, and include a variety of mammalian cell lines such as COS, HEK, e.g., HEK293 and/or CHO, cells. Cell lines are transfected with gated ion channel(s) and used to perform electrophysiology as follows:
All experiments are performed at room temperature (20-25° C.) in voltage clamp using conventional whole cell patch clamp methods (Neher, E., et al. (1978) Pfluegers Arch 375:219-228).
The amplifier used is the EPC-9 (HEKA-electronics, Lambrect, Germany) run by a Macintosh G3 computer via an ITC-16 interface. Experimental conditions are set with the Pulse-software accompanying the amplifier. Data is low pass filtered and sampled directly to hard-disk at a rate of 3 times the cut-off frequency.
Pipettes are pulled from borosilicate glass using a horizontal electrode puller (Zeitz-lnstrumente, Augsburg, Germany). The pipette resistances are 2-3 MOhms in the salt solutions used in these experiments. The pipette electrode is a chloridized silver wire, and the reference is a silver chloride pellet electrode (In Vivo Metric, Healdsburg, USA) fixed to the experimental chamber. The electrodes are zeroed with the open pipette in the bath just prior to sealing.
Coverslips with the cells are transferred to a 15 μl experimental chamber mounted on the stage of an inverted microscope (IMT-2, Olympus) supplied with Nomarski optics. Cells are continuously superfused with extracellular saline at a rate of 2.5 ml/min. After giga-seal formation, the whole cell configuration is attained by suction. The cells are held at a holding voltage of −60 mV and at the start of each experiment the current is continuously measured for 45 s to ensure a stable baseline. Solutions of low pH (<7) are delivered to the chamber through a custom-made gravity-driven flowpipe, the tip of which is placed approximately 50 μm from the cell. Application is triggered when the tubing connected to the flowpipe is compressed by a valve controlled by the Pulse-software. Initially, low pH (in general, pH 6.5) is applied for 5 s every 60 s. The sample interval during application is 550 μs. After stable responses are obtained, the extracellular saline as well as the low-pH solution are switched to solutions containing the compound to be tested. The compound is present until responses of repeatable amplitude are achieved. Current amplitudes are measured at the peak of the responses, and effect of the compounds is calculated as the amplitude at compound equilibrium divided by the amplitude of the current evoked by the pulse just before the compound was included.
The following salt solutions are used: extracellular solution (mM): NaCl (140), KCl (4), CaCl2 (2), MgCl2 (4), HEPES (10, pH 7.4); intracellular solution (mM): KCl (120), KOH (31), MgCl2 (1.785), EGTA (10), HEPES (10, pH 7.2). In general, compounds for testing are dissolved in 50% DMSO at 500 fold the highest concentration used.
CHO cells were transfected with hASIC1a and used to perform full dose-inhibition curves with Compound B, and Compound R. Results are expressed as a fraction of the control peak current obtained in the absence of the test substance.

Assay [5] addresses T3, hASIC3 (Homo sapiens, UniProt Q9UHC3).
T3 sequence (Q9UHC3 1-531): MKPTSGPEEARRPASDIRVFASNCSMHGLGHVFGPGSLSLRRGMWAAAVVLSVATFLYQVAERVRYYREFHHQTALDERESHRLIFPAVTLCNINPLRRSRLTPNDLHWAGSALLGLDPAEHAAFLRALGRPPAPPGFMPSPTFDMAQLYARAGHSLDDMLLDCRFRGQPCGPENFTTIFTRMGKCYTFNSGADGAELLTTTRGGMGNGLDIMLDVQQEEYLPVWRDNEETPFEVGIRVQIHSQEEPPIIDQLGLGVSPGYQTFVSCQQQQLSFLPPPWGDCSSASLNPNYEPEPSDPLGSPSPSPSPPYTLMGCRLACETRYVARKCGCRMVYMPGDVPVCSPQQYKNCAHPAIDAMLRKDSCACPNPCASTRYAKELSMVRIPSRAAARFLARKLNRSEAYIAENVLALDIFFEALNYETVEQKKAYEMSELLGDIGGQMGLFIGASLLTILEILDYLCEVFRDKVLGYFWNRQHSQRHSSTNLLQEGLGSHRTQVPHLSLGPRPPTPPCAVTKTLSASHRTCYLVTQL
Nature of the assay: FlexStation assay on HEK293 cells expressing hASIC3. Also on record: expressed in transfected cells; host or cells: HEK293 cells. It is filed as cell-based. To be noted: FlexStation (Flex), Tables A-F; read-out: Biological Data (IC50 uM) h3 (Flex). Here is the method: A vial of FMP dye (Molecular Devices) is resuspended in 10.5 ml of assay buffer (48.3 mM NaCl, 93 mM NMDG, 5 mM KCl, 5 mM CaCl2, 1 mM MgCl2, 10 mM HEPES, pH 7.4). The culture medium is aspirated from the wells, and 100 μl of the FMP loading solution is added to each well. The cells are incubated at 37° C. for 30 min.
After the loading period, the loading solution is left on the cells and the membrane potential-induced fluorescence is measured in FLIPR™ or FlexStation™ (Molecular Devices, USA), or any other suitable equipment known to the skilled in the art.
For cells co-expressing ASIC1a and ASIC3 channels (e.g. HEK293 cells), membrane potential dye (FMP dye) is used and the FlexStation settings are as above.
as §1, §2

Setting [6] is: OpusExpress (OX), Tables A-F, h1a printed in some cells only, read-out: Biological Data (IC50 uM) h1a (OX).
Setting [7] is: Table H, read-out: IC50 (μM) Opus Express (h1a).

`Brc1ccc(-c2nc(N3CCNCC3)c3ccccc3n2)cc1` [Compound C, 2-(4-bromo-phenyl)-4-piperazin-1-yl-quinazoline]: the IC50 in assay [1] is above 20 µM.

On to `Cc1cc(N2CCN(CCc3ccccc3)CC2)c2ccccc2n1` [Compound D, 2-methyl-4-(4-phenethyl-piperazin-1-yl)-quinoline], for which the IC50 in assay [2] (setting [6]) and in assay [2] (setting [7]) was above 50 µM each time. Further, the EC50 in assay [3] was below 10 µM.

For `Cc1cc(N2CCCN(C)CC2)nc2cc(Cl)ccc12` [Compound F, 7-chloro-4-methyl-2-(4-methyl-[1,4]diazepan-1-yl)-quinoline], in assay [4], the “IC50 (μM) Patch Clamp (h1a)” value is “Inactive”. The EC50 in assay [3] is below 10 µM.

As for `COc1ccc(-c2cc(C(=O)N3CCN(C)CC3)c3ccccc3n2)cc1OC` [Compound G, [2-(3,4-dimethoxy-phenyl)-quinolin-4-yl]-(4-methyl-piperazin-1-yl)-methanone], the EC50 in assay [3] was above 20 µM.

With `Cc1ccc(-c2nc(Nc3ccc(C(=O)O)cc3)c3ccccc3n2)cc1` [Compound K, 4-(2-p-tolyl-quinazolin-4-ylamino)-benzoic acid], the “IC50 (μM) Patch Clamp (h1a)” value in assay [4] was “Inactive”. The “IC50 (μM) Opus Express (h1a)” value in assay [2] (Table H) is on record as “Inactive”. The EC50 in assay [3] was above 10 µM.

Regarding `Cc1cc(N2CCN(CC3CCCCC3)CC2)c2ccccc2n1` [Compound O, 4-(4-cyclohexylmethyl-piperazin-1-yl)-2-methyl-quinoline], the IC50 was 5 to 15 µM in assay [5], 20 to 30 µM in assay [2] (setting [6]) and 23.9 µM in assay [2] (setting [7]). In addition, in assay [3], the EC50 was above 20 µM.

Turning to `COc1ccc(CN2CCN(c3cc(C)nc4ccccc34)CC2)cc1` [Compound Q, 4-[4-(4-methoxy-benzyl)-piperazin-1-yl]-2-methyl-quinoline], the IC50 in assay [5] is 10 to 20 µM; in assay [2] (setting [7]), above 50 µM. For the same molecule, in assay [3], the EC50 is below 10 µM.
